This is an account of results in US11629136B1, “Substituted pyridine derivatives as SARM1 inhibitors” (Nura Bio, Inc., priority 2021, dated 2023).

Counter-ions that a name gives are not always drawn. A value given as a limit tells only on which side of the number the result lay.

The first assay deals with human SARM1(50-724) (Homo sapiens (Human), UniProt Q6SZW1). Nature of the assay: SARM1 NAD hydrolase biological assay (HPLC readout of NAD and NAM peak areas). It is filed as biochemical.
Sequence of human SARM1(50-724) (Q6SZW1 50-724): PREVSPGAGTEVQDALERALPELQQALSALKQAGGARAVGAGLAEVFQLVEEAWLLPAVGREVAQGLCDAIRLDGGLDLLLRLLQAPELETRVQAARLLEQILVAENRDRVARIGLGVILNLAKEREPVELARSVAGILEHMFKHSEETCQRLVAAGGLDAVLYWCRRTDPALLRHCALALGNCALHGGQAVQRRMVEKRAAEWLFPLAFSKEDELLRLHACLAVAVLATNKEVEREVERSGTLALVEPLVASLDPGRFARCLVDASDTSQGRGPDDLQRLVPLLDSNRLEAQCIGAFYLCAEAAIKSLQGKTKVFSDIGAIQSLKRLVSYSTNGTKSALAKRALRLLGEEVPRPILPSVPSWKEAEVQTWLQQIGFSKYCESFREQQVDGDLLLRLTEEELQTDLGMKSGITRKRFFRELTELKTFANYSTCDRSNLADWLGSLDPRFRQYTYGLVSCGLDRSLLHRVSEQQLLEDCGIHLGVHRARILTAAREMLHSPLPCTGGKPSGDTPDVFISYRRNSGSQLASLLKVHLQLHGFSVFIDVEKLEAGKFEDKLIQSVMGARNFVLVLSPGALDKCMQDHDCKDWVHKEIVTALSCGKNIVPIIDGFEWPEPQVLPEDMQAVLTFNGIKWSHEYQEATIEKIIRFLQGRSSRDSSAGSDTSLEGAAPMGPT
Conditions: not given
On the procedure: The reaction was incubated at room temperature for 60 minutes and quenched with 20 μL of 0.4% formic acid. […] Total run time for each sample was 4 minutes. The run was isocratic with 1.5% methanol in 40 mM ammonium acetate pH 6.0. Samples were run at a flow rate of 0.8 ml/min at 55° C. Peak areas of NAD and NAM were determined using OpenLAB CDS (Chem Station edition) software. For dose-response, the compound was diluted serially 1:3 in DMSO and added to the reaction starting at a final compound concentration of 100 μM in 1% DMSO.
In the case of `N#CCCc1nc(Cc2ccncc2)c[nH]1` [Example 4, 3-(4-(Pyridin-4-ylmethyl)-1H-imidazol-2-yl)propanenitrile], the IC50 (commonly the concentration at which inhibition is half-maximal) was in the range of 1 to 10 µM.

Still in this assay, the particulars now being: 40 nM human SARM1(50-724), 0.3 mM NMN, 20 μM NAD, 60 minutes at room temperature; class symbols; read-out: Average IC50.
On to `FC(F)(F)Cc1nc(Cc2ccncc2Cl)c[nH]1` [Example 27, 3-Chloro-4-((2-(2,2,2-trifluoroethyl)-1H-imidazol-4-yl)methyl)pyridine], for which the concentration for half-maximal inhibition (IC50) was below 1 µM. With `O[C@@H](c1ncc(Cc2ccncc2)[nH]1)C(F)(F)F` (single isomer, unassigned) [Example 7], the concentration for half-maximal inhibition (IC50) is below 1 µM. On to `Cc1cnccc1Cc1cnc([C@@H](O)c2cncs2)[nH]1` (single isomer, unassigned) [Example 30a], for which the 50% inhibitory concentration (IC50) fell in the range of 1 to 10 µM.

As for `FC(F)(F)Cc1nc(Cc2ccncc2)c[nH]1` [Example 1, 4-((2-(2,2,2-Trifluoroethyl)-1H-imidazol-4-yl)methyl)pyridine], the IC50 was below 1 µM.

As for `CN(C)[C@H](c1ncc(Cc2ccncc2)[nH]1)C(F)(F)F` (single isomer, unassigned) [Example 17a], the IC50 fell in the range of 1 to 10 µM.

As to `NC(c1nc(Cc2ccncc2)c[nH]1)C(F)(F)F` (single isomer, unassigned) [Example 15], the concentration for half-maximal inhibition (IC50) fell in the range of 1 to 10 µM.

As for `FC(F)(F)Cc1ncc(Cc2c(Cl)cncc2Cl)[nH]1` [Example 22, 3,5-Dichloro-4-((2-(2,2,2-trifluoroethyl)-1H-imidazol-5-yl)methyl)pyridine], the IC50 was 10 to 100 µM. In the case of `N[C@H](c1nc(Cc2ccncc2)c[nH]1)C(F)(F)F` (single isomer, unassigned) [Example 15a], the 50% inhibitory concentration (IC50) was below 1 µM.

In the case of `CO[C@@H](c1ncc(Cc2ccncc2)[nH]1)C(F)(F)F` (single isomer, unassigned) [Example 33], the IC50 was in the range of 1 to 10 µM. On to `C[C@H](c1ccncc1)c1c[nH]c([C@@H](O)C(F)(F)F)n1` (single isomer, unassigned) [Example 24a], for which the half-inhibitory concentration (IC50) is 10 to 100 µM. Still for that read-out and setting: next, `Cc1cnccc1Cc1c[nH]c(CC(F)(F)F)n1` [Example 25, 3-Methyl-4-((2-(2,2,2-trifluoroethyl)-1H-imidazol-4-yl)methyl)pyridine]: below 1 µM; `C[C@H](c1ccncc1)c1c[nH]c([C@H](O)C(F)(F)F)n1` (single isomer, unassigned) [Example 24b]: below 1 µM.

On to `OC(c1nc(Cc2ccncc2Cl)c[nH]1)C(F)(F)F` (racemic) [Example 23, (rac)-1-(4-((3-Chloropyridin-4-yl)methyl)-1H-imidazol-2-yl)-2,2,2-trifluoroethan-1-ol], for which the IC50 was below 1 µM. `C[C@@H](c1ccncc1)c1c[nH]c(CC(F)(F)F)n1` (single isomer, unassigned) [Example 5a]: the IC50 was below 1 µM. For the compound `C[C@](O)(c1ncc(Cc2ccncc2)[nH]1)C(F)(F)F` (single isomer, unassigned) [Example 32a], the IC50 is 1 to 10 µM.

In the case of `FC(F)(F)Cc1csc(Cc2ccncc2)n1` [Example 9, 2-(Pyridin-4-ylmethyl)-4-(2,2,2-trifluoroethyl)thiazole], the IC50 was in the range of 1 to 10 µM. Still for that read-out and setting: under `CNC(c1ncc(Cc2ccncc2)[nH]1)C(F)(F)F` (single isomer, unassigned) [Example 16] stands 1 to 10 µM. On to `FC(F)(F)CCc1nc(Cc2ccncc2)c[nH]1` [Example 2, 4-((2-(3,3,3-trifluoropropyl)-1H-imidazol-4-yl)methyl)pyridine], for which the IC50 lay within 1 to 10 µM. For the compound `CC(c1ccncc1)c1ccc(CC(F)(F)F)[nH]1` (racemic) [Example 11, (rac)-4-(1-(5-(2,2,2-Trifluoroethyl)-1H-pyrrol-2-yl)ethyl)pyridine], the concentration for half-maximal inhibition (IC50) is 1 to 10 µM. Still for that read-out and setting: under `N#CCc1nc(Cc2ccncc2)c[nH]1` [Example 3, 2-(4-(Pyridin-4-ylmethyl)-1H-imidazol-2-yl)acetonitrile] stands below 1 µM. On to `CN[C@H](c1ncc(Cc2ccncc2)[nH]1)C(F)(F)F` (single isomer, unassigned) [Example 16a], for which the half-inhibitory concentration (IC50) fell in the range of 1 to 10 µM. Take `Cc1cnccc1Cc1c[nH]c(C(O)c2cncs2)n1` (racemic) [Example 21, (rac)-(5-((3-Methylpyridin-4-yl)methyl)-1H-imidazol-2-yl)(thiazol-5-yl)methanol]: the concentration for half-maximal inhibition (IC50) was 10 to 100 µM. Same read-out and setting: next, `O[C@H](c1ncc(Cc2ccncc2)[nH]1)C(F)(F)F` (single isomer, unassigned) [Example 7a]: below 1 µM; `FC(F)(F)Cc1nc(Cc2ccncc2)cs1` [Example 10, 4-(Pyridin-4-ylmethyl)-2-(2,2,2-trifluoroethyl)thiazole]: 1 to 10 µM.

`C[C@@](O)(c1ncc(Cc2ccncc2)[nH]1)C(F)(F)F` (single isomer, unassigned) [Example 32]: the IC50 is below 1 µM. For the compound `O[C@](c1ncc(Cc2ccncc2)[nH]1)(c1cncs1)C(F)(F)F` (single isomer, unassigned) [Example 26a], the IC50 is below 1 µM.

On to `ON=C(c1ncc(Cc2ccncc2)[nH]1)C(F)(F)F` (mixture of isomers) [Example 13, (E/Z)-2,2,2-Trifluoro-1-(5-(pyridin-4-ylmethyl)-1H-imidazol-2-yl)ethan-1-one oxime], for which the 50% inhibitory concentration (IC50) fell in the range of 1 to 10 µM.

For the compound `Cc1cnccc1Cc1c[nH]c([C@@H](O)C(F)(F)F)n1` (single isomer, unassigned) [Example 37a], the IC50 was below 1 µM. For the compound `O[C@H](c1nc(Cc2ccncc2F)c[nH]1)C(F)(F)F` (single isomer, unassigned) [Example 38a], the IC50 was in the range of 1 to 10 µM. The same measure, in the same setting: under `Cc1cnccc1Cc1c[nH]c(C(O)C(F)(F)F)n1` (single isomer, unassigned) [Example 37] stands 1 to 10 µM; under `O[C@@H](c1ncc(Cc2ccncc2)[nH]1)c1nccs1` (single isomer, unassigned) [Example 31a], 1 to 10 µM; under `Cc1cnccc1Cc1cnc([C@H](O)c2cncs2)[nH]1` (single isomer, unassigned) [Example 30], 10 to 100 µM. `O[C@@H](c1nc(Cc2ccncc2F)c[nH]1)C(F)(F)F` (single isomer, unassigned) [Example 38]: the IC50 is below 1 µM.

On to `C[C@@H](c1ccncc1)c1c[nH]c([C@H](O)C(F)(F)F)n1` (single isomer, unassigned) [Example 24], for which the IC50 was below 1 µM.

For `N[C@@H](c1nc(Cc2ccncc2)cs1)C(F)(F)F` [Example 19a], the 50% inhibitory concentration (IC50) was 1 to 10 µM.

For the compound `O[C@H](c1nc(Cc2ccncc2)c[nH]1)c1cncs1` (single isomer, unassigned) [Example 20a], the IC50 was below 1 µM. Regarding `O=C(c1ncc(Cc2ccncc2)[nH]1)C(F)(F)F` [Example 12, 2,2,2-Trifluoro-1-(5-(pyridin-4-ylmethyl)-1H-imidazol-2-yl)ethan-1-one hydrochloride], the IC50 was below 1 µM. Turning to `CC(c1ccncc1)c1c[nH]c(CC(F)(F)F)n1` (racemic) [Example 5, (rac)-4-(1-(2-(2,2,2-Trifluoroethyl)-1H-imidazol-4-yl)ethyl)pyridine], the IC50 is below 1 µM. On the same count and under the same terms, next, `C[C@H](c1ccncc1)c1c[nH]c(CC(F)(F)F)n1` (single isomer, unassigned) [Example 5b]: 1 to 10 µM. On the same count and under the same terms, next, `OC(c1ccccn1)c1ncc(Cc2ccncc2)[nH]1` (racemic) [Example 35, (rac)-Pyridin-2-yl(5-(pyridin-4-ylmethyl)-1H-imidazol-2-yl)methanol]: 1 to 10 µM; `Cc1[nH]c(CC(F)(F)F)nc1Cc1ccncc1` [Example 14, 4-((5-Methyl-2-(2,2,2-trifluoroethyl)-1H-imidazol-4-yl)methyl)pyridine]: 10 to 100 µM; `c1cc(Cc2c[nH]c(Cc3cncs3)n2)ccn1` [Example 6, 5-((4-(Pyridin-4-ylmethyl)-1H-imidazol-2-yl)methyl)thiazole]: below 1 µM.

In the case of `OC(c1nc(Cc2ccncc2)c[nH]1)c1cncs1` (single isomer, unassigned) [Example 20], the IC50 lay within 1 to 10 µM.

`FC(F)(F)Cc1nc(Cc2ccncc2)n[nH]1` [Example 8, 4-((5-(2,2,2-Trifluoroethyl)-1H-1,2,4-triazol-3-yl)methyl)pyridine]: the IC50 was in the range of 10 to 100 µM. Still for that read-out and setting: under `COC(c1ncc(Cc2ccncc2)[nH]1)C(F)(F)F` (single isomer, unassigned) [Example 33a] stands 1 to 10 µM.

Still in this assay, the particulars now being: 40 nM human SARM1(50-724), 0.3 mM NMN, 20 μM NAD, 60 minutes at room temperature; given as numeric bound; read-out: Average IC50.
Turning to `ON=C(c1nc(Cc2ccncc2)cs1)C(F)(F)F` (mixture of isomers) [Example 18, (E/Z)-2,2,2-Trifluoro-1-(4-(pyridin-4-ylmethyl)thiazol-2-yl)ethan-1-one oxime], the IC50 was above 100 µM. As for `O[C@@H](c1ncc(Cc2ccnc(F)c2)[nH]1)C(F)(F)F` (single isomer, unassigned) [Example 34a], the IC50 is above 100 µM.

On to `O[C@H](c1ncc(Cc2ccncc2)[nH]1)c1nccs1` (single isomer, unassigned) [Example 31], for which the IC50 was above 50 µM. For `C[C@@H](c1ccncc1)c1c[nH]c([C@@H](O)C(F)(F)F)n1` (single isomer, unassigned) [Example 24c], the IC50 was above 50 µM. Consider `FC(F)(F)Cc1nc(Cc2ccnc(Cl)c2)c[nH]1` [Example 28, 2-Chloro-4-((2-(2,2,2-trifluoroethyl)-1H-imidazol-4-yl)methyl)pyridine], for which the IC50 was above 50 µM. For `Fc1cc(Cc2c[nH]c(CC(F)(F)F)n2)ccn1` [Example 29, 2-Fluoro-4-((2-(2,2,2-trifluoroethyl)-3H-imidazol-4-yl)methyl)pyridine], the IC50 is above 50 µM. The same measure, in the same setting: under `O[C@H](c1ncc(Cc2ccnc(F)c2)[nH]1)C(F)(F)F` (single isomer, unassigned) [Example 34] stands above 100 µM.
